Laboratory results: paper PMC12410356 (International Journal for Parasitology: Drugs and Drug …, 2025)

How the values were obtained:
[1] = tested on: E. multilocularis metacestode vesicles; assay: Metacestode vesicle viability assay (ATP, CellTiter-Glo); assay type: cell-based, Echinococcus multilocularis
Procedure: Viability was assessed after 12 days using the same metacestode vesicles as for the PGI release assay. Triton X-100 was added to each well to a final concentration of 0.1 %. Subsequently the metacestode vesicles were broken mechanically and 50 μL of the supernatant was mixed with 50 μL of CellTiter-Glo® buffer (Promega, Dübendorf, Switzerland). Measurements were performed on a HIDEX Sense microplate reader.

[2] = tested on: E. multilocularis metacestode vesicles; assay: Phosphoglucose isomerase (PGI) release assay (damage-marker release) on metacestode vesicles; assay type: cell-based, Echinococcus multilocularis; details: 10 μM; for PGI d5 (relative PGI release): 5 days; for PGI d12 (relative PGI release): 12 days
[3] = overview screen, 10 μM, singlets, 12 days, relative to DMSO control
[4] = overview screen, singlets, relative to 0.1 % Triton X-100, DMSO subtracted
[5] = confirmation screen, 10 μM, triplicates, mean, 12 days
[6] = confirmation screen, triplicates, mean

| SMILES | Viability d12 (relative viability) [1, 3] [%] | PGI d5 (relative PGI release) [2, 4] [%] | PGI d12 (relative PGI release) [2, 4] [%] | also measured |
| --- | --- | --- | --- | --- |
| CC(=N)N1CC[C@H](SC2=C(C(=O)O)N3C(=O)[C@@H]([C@@H](C)O)[C@H]3C2)C1 [MMV1582382] | 19.8723 | -2.073 | -11.6677 | – |
| CCCCCCCCC(CP(=O)(O)C(C)N)C(=O)O (centres unmarked) [MMV1582487] | 34.1503 | -0.4977 | -10.5393 | – |
| Cl.Nc1nc(-c2ccccc2)nc2c1ncn2[C@@H]1O[C@H](COS(=O)(=O)NC(=O)c2ccccc2O)[C@@H](O)[C@H]1O [MMV1582488] | 117.234 | -1.401 | 11.4821 | – |
| Cc1c[nH]c(=O)nc1NCc1ccccc1 [MMV1582489] | 140.789 | -0.6323 | -1.8719 | – |
| CCc1cc(Cc2cnc(N)nc2N)cc2c1N(C)CCC2C (centres unmarked) [MMV1582490] | 27.4864 | 9.437 | 80.495 | Viability d12 (relative viability) [1, 5]: 117.48%; PGI d5 (relative PGI release) [2, 6]: 0.0536%; PGI d12 (relative PGI release) [2, 6]: -0.39% |
| O=C(CCCC(F)(F)F)N1CCC(c2nc(-c3nccs3)no2)CC1 [MMV1582491] | 18.4528 | 0.6914 | 59.8611 | Viability d12 (relative viability) [1, 5]: 57.90%; PGI d5 (relative PGI release) [2, 6]: -0.08%; PGI d12 (relative PGI release) [2, 6]: -0.04% |
| Cc1nc(-c2ccc(C3N(C)c4ccc(F)cc4C(=O)N3c3ccccc3)s2)cs1 (centres unmarked) [MMV1582492] | 101.198 | -1.6173 | -12.6909 | – |
| C[C@@H](NC(=O)c1ccccc1-c1ccccc1)B(O)O [MMV1582493] | 135.265 | -2.006 | 35.0936 | – |
| C[C@@H](O)[C@H](N)C(=O)NS(=O)(=O)c1cccc(-c2ccc3[nH]ncc3c2)c1.Cl.Cl [MMV1582494] | 90.2603 | -2.197 | -25.2892 | – |
| C(=C\c1nc2ccccc2[nH]1)/c1ccc2c(c1)OCO2 [MMV1582495] | 98.8605 | -1.5423 | -10.1943 | – |
| N#Cc1c(F)c(Cl)c(NCc2ccccc2)c(C#N)c1F [MMV1582496, 4-(benzylamino)-5-chloro-2,6-difluorobenzene-1,3-dicarbonitrile] | – | 23.5135 | 27.7197 | viability at 10 µM ([1]; Echinococcus multilocularis, 288 h, overview screen, 10 μM, singlets, 12 days, relative to DMSO control, read-out: Viability d12 (relative viability)): 121%; effect on metacestode vesicle viability (in words) ([1]; overview screen, 10 μM, twelve days, cut-off viability ≤30 %): did not reduce the metacestode vesicle viability; activity in the PGI release assay (in words) ([2]; overview screen, twelve days, cut-off PGI release ≥20 %): active in the PGI assay after twelve days |
| CC(C)c1ccc(COc2cccc(-c3cc([S+](C)[O-])c(C#N)c(=O)[nH]3)c2)cc1 (centres unmarked) [MMV1582497] | 210.079 | 3.781 | -9.364 | – |
| Cc1cc(Nc2ccc(F)cc2)nc(SCc2nc3ccccc3[nH]2)n1 [MMV1582498] | 46.2574 | 0.3642 | 1.096 | – |
| CCC(CC)[C@H](NC(C)=O)[C@@H]1[C@H](O)[C@@H](C(=O)O)C[C@H]1NC(=N)N [MMV1593511] | 73.923 | 0.2364 | -10.4107 | – |
| CCCCCCCCCN1C[C@@H](O)[C@H](O)[C@@H](O)[C@@H]1CO [MMV1593513] | 80.9399 | -0.861 | -3.193 | – |
| CNC(=O)C1O[C@@H](n2cnc3c(NCc4cccc(I)c4)nc(Cl)nc32)[C@H](O)[C@@H]1O (some centres unmarked) [MMV1593514] | – | -0.4087 | 0.1534 | Viability d12 (relative viability) ([1]; 10 µM): 79.1378% |
| CCOC(=O)N[C@@H]1CC[C@@H]2[C@@H](C1)C[C@H]1C(=O)O[C@H](C)[C@H]1[C@H]2/C=C/c1ccc(-c2cccc(F)c2)cn1 [MMV1593515] | 74.5757 | 1.1006 | -17.1599 | – |
| O=C(O)[C@H]1C2CCC(CC2)[C@@H]1Nc1nc(-c2c[nH]c3ncc(F)cc23)ncc1F [MMV1593516] | 121.454 | 2.198 | -18.5586 | – |
| O=C(/C=C/n1cnc(-c2cc(C(F)(F)F)cc(C(F)(F)F)c2)n1)NNc1cnccn1 [MMV1593517] | – | 1.037 | -18.0019 | Viability d12 (relative viability) ([1]; 10 µM): 95.9515% |

| SMILES | Viability d12 (relative viability) [1, 3] [%] | PGI d5 (relative PGI release) [2, 4] [%] | PGI d12 (relative PGI release) [2, 4] [%] | also measured |
| --- | --- | --- | --- | --- |
| C[C@@]1(O)[C@H](O)[C@@H](CO)O[C@H]1n1ccc2c(N)ncnc21 [MMV1593519] | 152.992 | 0.01923 | 0.1259 | – |
| [N-]=[N+]=N[C@H]1C[C@H](n2ccc(=O)[nH]c2=O)O[C@@H]1CO [MMV1593520] | 90.373 | 0.5917 | -8.089 | – |
| CC(C)Nc1nc2cc(Cl)c(Cl)cc2n1[C@H]1O[C@@H](CO)[C@H](O)[C@@H]1O [MMV1593521] | 80.7959 | 1.092 | -0.5297 | – |
| O=C(Nc1ccc(-c2ccccc2)cc1)C1=C(O)C(Cc2ccccc2)OC1=O (centres unmarked) [MMV1593531] | 16.5533 | 4.793 | 88.1717 | Viability d12 (relative viability) [1, 5]: 49.52%; PGI d5 (relative PGI release) [2, 6]: 0.17%; PGI d12 (relative PGI release) [2, 6]: 1.55% |
| O=C(Nc1ncc(Cc2cccc3ccccc23)s1)C1CCCCC1 [MMV1593532] | 94.209 | -1.117 | -3.615 | – |
| C[C@H]1[C@@H](c2cccc(C(F)(F)F)c2)OC(=O)N1C(=O)NCc1cncc2ccccc12 [MMV1593533] | 85.501 | -2.428 | -25.2459 | – |
| CCNC(=O)Nc1cc(-c2ccccc2)c(-c2cncc(C(=O)O)c2)cn1 [MMV1593534] | 81.2426 | -2.168 | -24.3929 | – |
| CCCCCCC1c2ccc(O)cc2Oc2cc(O)ccc21 [MMV1593535] | 92.5147 | 1.318 | -18.7037 | – |
| Fc1ccc(-c2nc(-c3c[nH]c4ccc(Br)cc34)[nH]c2-c2ccc(F)cc2)cc1 [MMV1593537] | 8.099 | 27.6196 | 72.794 | Viability d12 (relative viability) [1, 5]: 69.22%; PGI d5 (relative PGI release) [2, 6]: 0.49%; PGI d12 (relative PGI release) [2, 6]: -0.0663% |
| Cl.NC1(C(=O)O)CCP(=O)(O)CC1 (centres unmarked) [MMV1593538] | 39.7446 | -1.639 | -13.1352 | – |
| O=[N+]([O-])c1ccc2c(CCc3c[nH]c4ccccc34)c[nH]c2c1 [MMV1593539] | 72.058 | 1.886 | 90.6206 | – |
| COc1ccc2cc3[n+](cc2c1OCCN(CCn1cncn1)Cc1ccc(F)cc1F)CCc1cc2c(cc1-3)OCO2 [MMV1593540] | 37.1562 | 1.275 | 36.6613 | – |
| Nc1nc(Nc2ccc3nc(-c4ccc(F)cc4)cc(N)c3c2)cc(-c2ccccc2)n1 [MMV1593541] | 23.9637 | 4.554 | -2.81 | – |
| OCCCCn1cnc2c(O)nc(NCc3ccc(Cl)c(Cl)c3)nc21 [MMV1593542] | 68.6346 | -1.805 | -12.5973 | – |
| COc1cc(C(C(=O)NC2CCCCC2)N(C(=O)Cc2c[nH]c3ccccc23)c2ccc(C(C)C)cc2)cc(OC)c1OC (centres unmarked) [MMV1593544] | 100.386 | 0.03783 | 0.3627 | – |
| CC1(C)C[C@H]1C(=O)N/C(=C\CCCCSC[C@@H](N)C(=O)O)C(=O)O.[Na+] [MMV1613559] | 85.3181 | -0.3777 | -1.053 | – |
| NC(=O)[C@@H]1CC[C@@H]2CN1C(=O)N2OS(=O)(=O)O [MMV1613560] | 46.8418 | -1.526 | -13.4159 | – |
| Cc1ncc([N+](=O)[O-])n1CC(O)CN1CCOCC1 (centres unmarked) [MMV1613562] | 97.4765 | 0.195 | -6.037 | – |
| COc1cc(Cc2cnc(N)nc2N)c2c(c1OC)OC(C1CC1)C=C2 (centres unmarked) [MMV1613563] | 145.38 | -0.539 | -1.956 | – |
